Measured values taken from PubChem BioAssay (NCI).
Where “and” joins values, the source holds several entries; their conditions need not be identical. Identical values can stand only once.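 In this assay, cells in 96-well plates receive the compound at five concentrations for 48 hours. Endpoints are linearly interpolated between the surrounding concentrations. GI50 is the concentration that inhibits growth by half. TGI is the concentration that stops growth completely.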

Legend:
Experiment in all cases: NCI tumour cell line growth inhibition, 48 h
NCI-H23 lung = system: NCI-H23 lung
UACC-62 melanoma = system: UACC-62 melanoma
K-562 leukemia = system: K-562 leukemia
KM12 colon = system: KM12 colon
786-0 renal = system: 786-0 renal
HCC-2998 colon = system: HCC-2998 colon
A549 NSCLC = system: A549 NSCLC
SK-MEL-2 melanoma = system: SK-MEL-2 melanoma
SW-620 colon = system: SW-620 colon
RPMI-8226 leukemia = system: RPMI-8226 leukemia
NCI-H460 lung = system: NCI-H460 lung
U251 CNS = system: U251 CNS
KM20L2 colon = system: KM20L2 colon
SNB-78 CNS = system: SNB-78 CNS
DMS 273 small cell lung = system: DMS 273 small cell lung
SK-MEL-28 melanoma = system: SK-MEL-28 melanoma
SNB-75 CNS = system: SNB-75 CNS
A498 renal = system: A498 renal
NCI-H522 lung = system: NCI-H522 lung
SNB-19 CNS = system: SNB-19 CNS
M19-MEL melanoma = system: M19-MEL melanoma
HOP-18 NSCLC = system: HOP-18 NSCLC
SK-OV-3 ovarian = system: SK-OV-3 ovarian
DMS 114 small cell lung = system: DMS 114 small cell lung
HT29 colon = system: HT29 colon
NCI-H226 lung = system: NCI-H226 lung
LOX IMVI melanoma = system: LOX IMVI melanoma
SK-MEL-5 melanoma = system: SK-MEL-5 melanoma
LXFL 529 NSCLC = system: LXFL 529 NSCLC
DLD-1 colon = system: DLD-1 colon
SF-268 CNS = system: SF-268 CNS
HCT-15 colon = system: HCT-15 colon
COLO 205 colon = system: COLO 205 colon
SR leukemia = system: SR leukemia
SN12K1 renal = system: SN12K1 renal
OVCAR-5 ovarian = system: OVCAR-5 ovarian
MCF7 breast = system: MCF7 breast
XF 498 CNS = system: XF 498 CNS
RXF 393 renal = system: RXF 393 renal
TK-10 renal = system: TK-10 renal
SF-295 CNS = system: SF-295 CNS
IGROV1 ovarian = system: IGROV1 ovarian
OVCAR-8 ovarian = system: OVCAR-8 ovarian
SN12C renal = system: SN12C renal
EKVX NSCLC = system: EKVX NSCLC
CAKI-1 renal = system: CAKI-1 renal
HL-60(TB) leukemia = system: HL-60(TB) leukemia
HOP-92 NSCLC = system: HOP-92 NSCLC
OVCAR-3 ovarian = system: OVCAR-3 ovarian
P388 leukemia = system: P388 leukemia
SF-539 CNS = system: SF-539 CNS
MALME-3M melanoma = system: MALME-3M melanoma
MOLT-4 leukemia = system: MOLT-4 leukemia
HOP-62 NSCLC = system: HOP-62 NSCLC
CCRF-CEM leukemia = system: CCRF-CEM leukemia
UACC-257 melanoma = system: UACC-257 melanoma
ACHN renal = system: ACHN renal
HCT-116 colon = system: HCT-116 colon
UO-31 renal = system: UO-31 renal
NCI/ADR-RES ovarian = system: NCI/ADR-RES ovarian
OVCAR-4 ovarian = system: OVCAR-4 ovarian
P388/ADR leukemia = system: P388/ADR leukemia

Compound: COc1cccc2c1C(=O)c1c(O)c3c(c(O)c1C2=O)C[C@@](O)(C(C)O)C[C@@H]3OC1CC(N)C(O)C(C)O1 (some centres not stated)
- GI50 (NCI-H23 lung): 1.27 µM
- TGI (NCI-H23 lung): 2.44 µM and 4.93 µM
- TGI (UACC-62 melanoma): 3.01 µM and 3.29 µM
- GI50 (K-562 leukemia): 2.21 µM
- TGI (K-562 leukemia): 8.19 µM and 26.5 µM
- GI50 (KM12 colon): 2.75 µM
- TGI (KM12 colon): 9.34 µM and 14.3 µM
- TGI (786-0 renal): 4.11 µM
- GI50 (HCC-2998 colon): 2.26 µM
- TGI (HCC-2998 colon): 5.26 µM and 7.66 µM
- GI50 (A549 NSCLC): 1.11 µM
- TGI (A549 NSCLC): 6.02 µM and 29 µM
- GI50 (SK-MEL-2 melanoma): 1.59 µM
- TGI (SK-MEL-2 melanoma): 3.5 µM and 3.45 µM
- GI50 (SW-620 colon): 0.881 µM
- TGI (SW-620 colon): 8.28 µM and 21.4 µM
- GI50 (RPMI-8226 leukemia): 0.289 µM and 0.502 µM
- TGI (RPMI-8226 leukemia): 2.53 µM and 13 µM
- TGI (NCI-H460 lung): 2.29 µM and 6.95 µM
- GI50 (U251 CNS): 0.705 µM
- TGI (U251 CNS): 7.87 µM and 3.44 µM
- GI50 (KM20L2 colon): 4.52 µM
- TGI (KM20L2 colon): 42.9 µM
- TGI (SNB-78 CNS): 7.32 µM and 8.53 µM
- TGI (DMS 273 small cell lung): 7.24 µM and 6.65 µM
- GI50 (SK-MEL-28 melanoma): 1.93 µM
- TGI (SK-MEL-28 melanoma): 4.05 µM and 7.36 µM
- GI50 (SNB-75 CNS): 1.71 µM and 1.05 µM
- TGI (SNB-75 CNS): 6.25 µM and 4.31 µM
- GI50 (A498 renal): 0.776 µM
- TGI (A498 renal): 8.09 µM and 4.62 µM
- GI50 (NCI-H522 lung): 0.228 µM
- TGI (NCI-H522 lung): 2.34 µM and 1.82 µM
- GI50 (SNB-19 CNS): 0.392 µM
- TGI (SNB-19 CNS): 7.81 µM and 5.57 µM
- TGI (M19-MEL melanoma): 3.32 µM and 4.06 µM
- GI50 (HOP-18 NSCLC): 4.96 µM and 1.13 µM
- TGI (HOP-18 NSCLC): 9.5 µM and 7.49 µM
- TGI (SK-OV-3 ovarian): 8.2 µM and 18.6 µM
- GI50 (DMS 114 small cell lung): 0.255 µM
- TGI (DMS 114 small cell lung): 1.48 µM and 1.14 µM
- GI50 (HT29 colon): 2.78 µM
- TGI (HT29 colon): 36.6 µM
- GI50 (NCI-H226 lung): 0.808 µM
- TGI (NCI-H226 lung): 2.39 µM and 3.11 µM
- GI50 (LOX IMVI melanoma): 1.29 µM
- TGI (LOX IMVI melanoma): 4.13 µM and 3.11 µM
- TGI (SK-MEL-5 melanoma): 2.49 µM and 2.53 µM
- TGI (LXFL 529 NSCLC): 7.62 µM
- GI50 (DLD-1 colon): 6.11 µM
- TGI (DLD-1 colon): > 100 µM
- TGI (SF-268 CNS): 5.52 µM and 6.43 µM
- GI50 (HCT-15 colon): 12.1 µM
- TGI (HCT-15 colon): > 100 µM
- GI50 (COLO 205 colon): 0.894 µM
- TGI (COLO 205 colon): 4.95 µM and 10.5 µM
- TGI (SR leukemia): 0.659 µM
- TGI (SN12K1 renal): 2.4 µM
- GI50 (OVCAR-5 ovarian): 3.69 µM
- TGI (OVCAR-5 ovarian): 9.41 µM and 19.7 µM
- TGI (MCF7 breast): 42.5 µM
- GI50 (XF 498 CNS): 0.221 µM
- TGI (XF 498 CNS): 2.87 µM and 1.86 µM
- TGI (RXF 393 renal): 5.13 µM and 6.06 µM
- TGI (TK-10 renal): 8.11 µM
- TGI (SF-295 CNS): 6.29 µM and 7.17 µM
- TGI (IGROV1 ovarian): 9.22 µM and 18.4 µM
- GI50 (OVCAR-8 ovarian): 2.39 µM
- TGI (OVCAR-8 ovarian): 5.43 µM and > 52.5 µM
- GI50 (SN12C renal): 1.49 µM
- TGI (SN12C renal): 6.58 µM and 7.62 µM
- GI50 (EKVX NSCLC): 1.73 µM
- TGI (EKVX NSCLC): 4.91 µM and 9.53 µM
- TGI (CAKI-1 renal): 3.16 µM and 3.53 µM
- TGI (HL-60(TB) leukemia): 1.13 µM and 1.29 µM
- GI50 (HOP-92 NSCLC): 0.231 µM
- TGI (HOP-92 NSCLC): 3.37 µM and 2.11 µM
- TGI (OVCAR-3 ovarian): 7.29 µM and 8.79 µM
- TGI (P388 leukemia): 1.69 µM
- GI50 (SF-539 CNS): 0.665 µM
- TGI (SF-539 CNS): 4.77 µM and 3.63 µM
- GI50 (MALME-3M melanoma): 0.392 µM
- TGI (MALME-3M melanoma): 1.72 µM and 1.93 µM
- GI50 (MOLT-4 leukemia): 0.0811 µM
- TGI (HOP-62 NSCLC): 4.3 µM and 4.42 µM
- GI50 (CCRF-CEM leukemia): 0.254 µM
- TGI (CCRF-CEM leukemia): 1.33 µM
- GI50 (UACC-257 melanoma): 2.41 µM
- TGI (UACC-257 melanoma): 4.2 µM and 9.17 µM
- TGI (ACHN renal): 8.18 µM
- GI50 (HCT-116 colon): 1.38 µM
- TGI (HCT-116 colon): 4.17 µM and 17.8 µM
- TGI (UO-31 renal): 97.8 µM
- TGI (NCI/ADR-RES ovarian): > 100 µM
- GI50 (OVCAR-4 ovarian): 13.4 µM
- TGI (OVCAR-4 ovarian): 35.2 µM
- TGI (P388/ADR leukemia): > 100 µM
